Laboratory results from patent publication US5294617A, “Angiotensin II receptor blocking 2,3,6 substituted quinazolinones” (American Cyanamid Company, priority 1993, dated 1994).
Where “and” joins values, the source holds several entries; their conditions need not be identical. Identical values can stand only once.

Test system: ANGIOTENSIN II (AII) VASOPRESSOR RESPONSE
Assay: AII Challenge: angiotensin II vasopressor response in conscious spontaneously hypertensive rats
Type: in vivo, Conscious Male Okamoto-Aoki SHR (rat)
Settings: individual rat, SHR
Source text: By administering a compound of this invention to a rat, and then challenging with angiotensin II, a blockage of the vasopressor response is realized.
Conscious Male Okamoto-Aoki SHR, 16-20 weeks old, weighing approximately 330 g are purchased from Charles River Labs (Wilmington, Mass.). Conscious rats are restrained in a supine position with elastic tape. The area at the base of the tail is locally anesthetized by subcutaneous infiltration with 2% procaine. The ventral caudal artery and vein are isolated, and a cannula made of polyethylene (PE) 10-20 tubing (fused together by heat) is passed into the lower abdominal aorta and vena cava, respectively. The cannula is secured, heparinized (1,000 I.U./ml), sealed and the wound is closed. The animals are placed in plastic restraining cages in an upright position. The cannula is attached to a Statham P23Db pressure transducer, and pulsatile blood pressure is recorded to 10-15 minutes with a Gould Brush recorder. (Chan et al., (Drug Development Res., 18:75-94, 1989).
Angiotensin II (human sequence, Sigma Chem. Co., St. Louis, Mo.) of 0.05 and 0.1 ug/kg i.v. is injected into all rats (predosing response). Then a test compound, vehicle or a known angiotensin II antagonist is administered i.v., i.p. or orally to each set of rats. The two doses of angiotensin II are given to each rat again at 30, 60, 90, 120, 180, 240 and 300 minutes post dosing the compound or vehicle. The vasopressor response of angiotensin II is measured for the increase in systolic blood pressure in mmHg. The percentage of antagonism or blockade of the vasopressor response of angiotensin II by a compound is calculated using the vasopressor response (increase in systolic blood pressure) of angiotensin II of each rat predosing the compound as 100%. A compound is considered active if at 30 mg/kg i.v. it antagonized at least 50% of the response.

[1] = 2 mg/kg i.v., AII 0.1 mcg/kg IV, 90 min post dose, 2 mg/kg
[2] = 2 mg/kg i.v., AII 0.1 mcg/kg IV, 120 min post dose, 2 mg/kg
[3] = 2 mg/kg i.v., AII 0.1 mcg/kg IV, 180 min post dose, 2 mg/kg
[4] = 10 mg/kg i.v., AII 0.05 mcg/kg IV, 30 min post dose, 10 mg/kg
[5] = 10 mg/kg i.v., AII 0.05 mcg/kg IV, 60 min post dose, 10 mg/kg
[6] = 10 mg/kg i.v., AII 0.05 mcg/kg IV, 120 min post dose, 10 mg/kg
[7] = 10 mg/kg i.v., AII 0.05 mcg/kg IV, 180 min post dose, 10 mg/kg
[8] = 10 mg/kg i.v., AII 0.05 mcg/kg IV, 240 min post dose, 10 mg/kg
[9] = 10 mg/kg i.v., AII 0.05 mcg/kg IV, 300 min post dose, 10 mg/kg
[10] = 10 mg/kg i.v., AII 0.1 mcg/kg IV, 30 min post dose
[11] = 10 mg/kg i.v., AII 0.1 mcg/kg IV, 60 min post dose, 10 mg/kg
[12] = 10 mg/kg i.v., AII 0.1 mcg/kg IV, 90 min post dose, 10 mg/kg
[13] = 10 mg/kg i.v., AII 0.1 mcg/kg IV, 120 min post dose, 10 mg/kg
[14] = 10 mg/kg i.v., AII 0.1 mcg/kg IV, 180 min post dose, 10 mg/kg
[15] = 10 mg/kg i.v., AII 0.1 mcg/kg IV, 240 min post dose, 10 mg/kg
[16] = 10 mg/kg i.v., AII 0.1 mcg/kg IV, 300 min post dose, 10 mg/kg

CCCCc1nc2ccc([C@@H]3C[C@H](CO)ON3C)cc2c(=O)n1Cc1ccc(-c2ccccc2-c2nn[nH]n2)cc1 (relative stereo) [Example 15, CIS-2-butyl-6-5-(hydroxymethyl)-2-methyl-3-isoxazolidinyl]-3-[[2'-(1H-tetrazol-5[1,1'-biphenyl]-4-yl]methyl]-4(3H)-quinazolinone]
Response After AII [1]: 245 mmHg and 240 mmHg
Response Change [1]: 30 mmHg and 20 mmHg
Response After AII [2]: 227 mmHg and 235 mmHg
Response Change [2]: 17 mmHg and 20 mmHg
Response After AII [3]: 220 mmHg and 255 mmHg
Response Change [3]: 10 mmHg and 35 mmHg
Control Before AII (2 mg/kg i.v., before AII 0.05 mcg/kg IV, 30 min post dose, 2 mg/kg): 215 mmHg and 225 mmHg
Control Before AII (2 mg/kg i.v., before AII 0.05 mcg/kg IV, 60 min post dose): 220 mmHg
Control Before AII (2 mg/kg i.v., before AII 0.05 mcg/kg IV, 90 min post dose, 2 mg/kg): 210 mmHg and 225 mmHg
Control Before AII (2 mg/kg i.v., before AII 0.05 mcg/kg IV, 120 min post dose, 2 mg/kg): 205 mmHg and 215 mmHg
Control Before AII (2 mg/kg i.v., before AII 0.05 mcg/kg IV, 180 min post dose, 2 mg/kg): 203 mmHg and 215 mmHg
Control Before AII (2 mg/kg i.v., before AII 0.1 mcg/kg IV, 30 min post dose, 2 mg/kg): 220 mmHg and 215 mmHg
Control Before AII (2 mg/kg i.v., before AII 0.1 mcg/kg IV, 60 min post dose, 2 mg/kg): 220 mmHg and 217 mmHg
Control Before AII (2 mg/kg i.v., before AII 0.1 mcg/kg IV, 90 min post dose, 2 mg/kg): 215 mmHg and 220 mmHg
Control Before AII (2 mg/kg i.v., before AII 0.1 mcg/kg IV, 120 min post dose, 2 mg/kg): 210 mmHg and 215 mmHg
Control Before AII (2 mg/kg i.v., before AII 0.1 mcg/kg IV, 180 min post dose, 2 mg/kg): 210 mmHg and 220 mmHg
Response After AII [4]: 180 mmHg and 190 mmHg
Response Change [4]: 5 mmHg and 15 mmHg
Response After AII (10 mg/kg i.v., AII 0.05 mcg/kg IV, 60 min post dose): 190 mmHg
Response After AII [5]: 165 mmHg
Response Change [5]: 0 mmHg and 1 mmHg
Response Change (10 mg/kg i.v., AII 0.05 mcg/kg IV, 90 min post dose): 5 mmHg
Response After AII (10 mg/kg i.v., AII 0.05 mcg/kg IV, 90 min post dose, 10 mg/kg): 180 mmHg and 170 mmHg
Response After AII [6]: 195 mmHg and 175 mmHg
Response Change [6]: 15 mmHg and 10 mmHg
Response After AII [7]: 195 mmHg and 165 mmHg
Response Change [7]: 30 mmHg and 10 mmHg
Response After AII (10 mg/kg i.v., AII 0.05 mcg/kg IV, 240 min post dose): 160 mmHg
Response After AII [8]: 195 mmHg
Response Change [8]: 25 mmHg and 5 mmHg
Response After AII (10 mg/kg i.v., AII 0.05 mcg/kg IV, 300 min post dose): 170 mmHg
Response After AII [9]: 185 mmHg
Response Change [9]: 17 mmHg and 10 mmHg
Response After AII [10]: 170 mmHg
Response Change [10]: 0 mmHg
Response After AII (10 mg/kg i.v., AII 0.1 mcg/kg IV, 30 min post dose, 10 mg/kg): 185 mmHg
Response After AII [11]: 193 mmHg and 170 mmHg
Response Change [11]: 8 mmHg and 10 mmHg
Response After AII [12]: 195 mmHg and 175 mmHg
Response Change [12]: 10 mmHg and 15 mmHg
Response After AII (10 mg/kg i.v., AII 0.1 mcg/kg IV, 120 min post dose): 190 mmHg
Response After AII [13]: 175 mmHg
Response Change [13]: 15 mmHg and 10 mmHg
Response After AII [14]: 205 mmHg and 165 mmHg
Response Change [14]: 35 mmHg and 8 mmHg
Response After AII [15]: 205 mmHg and 165 mmHg
Response Change [15]: 35 mmHg and 8 mmHg
Response After AII [16]: 190 mmHg and 200 mmHg
Response Change [16]: 25 mmHg and 40 mmHg
Control Before AII (10 mg/kg i.v., before AII 0.05 mcg/kg IV, 30 min post dose): 175 mmHg
Control Before AII (10 mg/kg i.v., before AII 0.05 mcg/kg IV, 60 min post dose, 10 mg/kg): 190 mmHg and 164 mmHg
Control Before AII (10 mg/kg i.v., before AII 0.05 mcg/kg IV, 90 min post dose, 10 mg/kg): 175 mmHg and 165 mmHg
Control Before AII (10 mg/kg i.v., before AII 0.05 mcg/kg IV, 120 min post dose, 10 mg/kg): 180 mmHg and 165 mmHg
Control Before AII (10 mg/kg i.v., before AII 0.05 mcg/kg IV, 180 min post dose, 10 mg/kg): 165 mmHg and 155 mmHg
Control Before AII (10 mg/kg i.v., before AII 0.05 mcg/kg IV, 240 min post dose, 10 mg/kg): 170 mmHg and 155 mmHg
Control Before AII (10 mg/kg i.v., before AII 0.05 mcg/kg IV, 300 min post dose, 10 mg/kg): 168 mmHg and 160 mmHg
Control Before AII (10 mg/kg i.v., before AII 0.1 mcg/kg IV, 30 min post dose, 10 mg/kg): 185 mmHg and 170 mmHg
Control Before AII (10 mg/kg i.v., before AII 0.1 mcg/kg IV, 60 min post dose, 10 mg/kg): 185 mmHg and 160 mmHg
Control Before AII (10 mg/kg i.v., before AII 0.1 mcg/kg IV, 90 min post dose, 10 mg/kg): 185 mmHg and 160 mmHg
Control Before AII (10 mg/kg i.v., before AII 0.1 mcg/kg IV, 120 min post dose, 10 mg/kg): 175 mmHg and 165 mmHg
Control Before AII (10 mg/kg i.v., before AII 0.1 mcg/kg IV, 180 min post dose, 10 mg/kg): 170 mmHg and 157 mmHg
Control Before AII (10 mg/kg i.v., before AII 0.1 mcg/kg IV, 240 min post dose, 10 mg/kg): 170 mmHg and 157 mmHg
Control Before AII (10 mg/kg i.v., before AII 0.1 mcg/kg IV, 300 min post dose, 10 mg/kg): 165 mmHg and 160 mmHg
